Our source for the IC90 values is US12679824B2 (Hoffmann-La Roche Inc., priority 2020, dated 2026).

One test has as its system Acinetobacter baumannii ATCC17961. Nature of the test: 90% Growth Inhibitory Concentration (IC90) determination, antimicrobial susceptibility testing. As to conditions: Acinetobacter baumannii, ATCC17961, 16 h, Acinetobacter baumannii ATCC17961; Iso-Sensitest broth; growth by optical density at 600 nm over 16h; concentration inhibiting 90% of the growth; read-out: ATCC 17961 IC90. The format is cell-based. Put shortly:
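Broth microdilution in Iso-Sensitest medium, compounds twofold diluted (e.g. 50–0.097 μM final), inoculum ~5×10^(5) CFU/ml, 35±2° C. OD600 was read every 20 min over 16 h. IC90 was derived from growth inhibition during logarithmic growth.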
Usually IC90 stands for the concentration needed for an effect of 90%. Regarding `Cc1cc(N)cnc1-n1cc(-c2cnc(C(=O)Nc3ccc(C(=O)N4CCN(C(=O)C5CCNCC5)CC4)c(Cl)c3)n2C)c(C(F)(F)F)n1` [Example Z81, 5-[1-(5-amino-3-methyl-2-pyridyl)-3-(trifluoromethyl)pyrazol-4-yl]-N-[3-chloro-4-[4-(piperidine-4-carbonyl)piperazine-1-carbonyl]phenyl]-1-methyl-imidazole-2-carboxamide], the IC90 turned out to be 0.75 µM.
The same measure, in the same setting: as for `CNc1ccc(-n2cc(-c3cnc(C(=O)Nc4ccc(C(=O)N5CCN(C(=O)C6CCNCC6)CC5)c(C)c4)n3C)c(C(F)(F)F)n2)nc1` [Example D6, 1-methyl-5-[1-[5-(methylamino)-2-pyridyl]-3-(trifluoromethyl)pyrazol-4-yl]-N-[3-methyl-4-[4-(piperidine-4-carbonyl)piperazine-1-carbonyl]phenyl]imidazole-2-carboxamide], the figure is 0.37 µM; as for `Cn1c(-c2cn(-c3ccc(N)cn3)nc2C(F)(F)F)cnc1C(=O)Nc1ccc(C(=O)N[C@H]2C[C@@H](N)C2)c(Cl)c1` [Example Z11, N-[4-[cis-(3-aminocyclobutyl)carbamoyl]-3-chloro-phenyl]-5-[1-(5-amino-2-pyridyl)-3-(trifluoromethyl)pyrazol-4-yl]-1-methyl-imidazole-2-carboxamide], 0.95 µM; as for `Cn1c(-c2cn(-c3nccc(N)n3)nc2C(F)(F)F)cnc1C(=O)Nc1ccc(C(=O)N2CCN(C(=O)C3CCNCC3)CC2)c(Cl)c1` [Example A15, 5-[1-(4-aminopyrimidin-2-yl)-3-(trifluoromethyl)pyrazol-4-yl]-N-[3-chloro-4-[4-(piperidine-4-carbonyl)piperazine-1-carbonyl]phenyl]-1-methyl-imidazole-2-carboxamide], 0.59 µM.
Still for that read-out and setting: as for `Cn1c(-c2cn(-c3ccc(Cl)cn3)nc2C(F)(F)F)cnc1C(=O)Nc1ccc(C(=O)N2CCN(C(=O)C3CCNCC3)CC2)c(Cl)c1` [Example A3, N-[3-chloro-4-[4-(piperidine-4-carbonyl)piperazine-1-carbonyl]phenyl]-5-[1-(5-chloro-2-pyridyl)-3-(trifluoromethyl)pyrazol-4-yl]-1-methyl-imidazole-2-carboxamide], the figure is 0.37 µM.
Same read-out and setting: next, `Cn1c(-c2cn(-c3ccc(N)cn3)nc2C(F)(F)F)cnc1C(=O)Nc1ccc(C(=O)N2C[C@H]3C[C@@H]2CN3)c(Cl)c1` [Example Z66, 5-[1-(5-amino-2-pyridyl)-3-(trifluoromethyl)pyrazol-4-yl]-N-[3-chloro-4-[(1R,4R)-2,5-diazabicyclo[2.2.1]heptane-2-carbonyl]phenyl]-1-methyl-imidazole-2-carboxamide]: 1.16 µM.
For the molecule `Cn1c(-c2cn(-c3cc(Cl)c(N)cn3)nc2C(F)(F)F)cnc1C(=O)Nc1ccc(C(=O)N2CCN(C(=O)C3CCNCC3)CC2)c(Cl)c1` [Example Z80, 5-[1-(5-amino-4-chloro-2-pyridyl)-3-(trifluoromethyl)pyrazol-4-yl]-N-[3-chloro-4-[4-(piperidine-4-carbonyl)piperazine-1-carbonyl]phenyl]-1-methyl-imidazole-2-carboxamide], the IC90 was 0.38 µM.
Regarding `Cn1c(-c2cn(-c3ccc(N)cn3)nc2C(F)(F)F)cnc1C(=O)Nc1ccc(C(=O)N2CCC(NC(=O)[C@@H]3C[C@@H](O)CN3)CC2)c(Cl)c1` [Example Z24, 5-[1-(5-amino-2-pyridyl)-3-(trifluoromethyl)pyrazol-4-yl]-N-[3-chloro-4-[4-[[(2S,4R)-4-hydroxyprolyl]amino]piperidine-1-carbonyl]phenyl]-1-methyl-imidazole-2-carboxamide], the IC90 is 0.46 µM.
On the same count and under the same terms, next, `CN(C(=O)[C@@H]1C[C@@H](O)CN1)C1CCN(C(=O)c2ccc(NC(=O)c3ncc(-c4cn(-c5ccc(N)cn5)nc4C(F)(F)F)n3C)cc2Cl)CC1` [Example Z46, 5-[1-(5-amino-2-pyridyl)-3-(trifluoromethyl)pyrazol-4-yl]-N-[3-chloro-4-[4-[[(2S,4R)-4-hydroxyprolyl]-methyl-amino]piperidine-1-carbonyl]phenyl]-1-methyl-imidazole-2-carboxamide]: 0.39 µM; `COc1ccc(-n2cc(-c3cnc(C(=O)Nc4ccc(C(=O)N5CCN(C(=O)[C@@H]6CCNC[C@H]6O)CC5)c(Cl)c4)n3C)c(C(F)(F)F)n2)nc1` [Example F4, N-[3-chloro-4-[4-[(3S,4R)-3-hydroxypiperidine-4-carbonyl]piperazine-1-carbonyl]phenyl]-5-[1-(5-methoxy-2-pyridyl)-3-(trifluoromethyl)pyrazol-4-yl]-1-methyl-imidazole-2-carboxamide]: 0.31 µM; `COc1nccc(-n2cc(-c3cnc(C(=O)Nc4ccc(C(=O)N5CCN(C(=O)C6CCNCC6)CC5)c(Cl)c4)n3C)c(C(F)(F)F)n2)n1` [Example C6, N-[3-chloro-4-[4-(piperidine-4-carbonyl)piperazine-1-carbonyl]phenyl]-5-[1-(2-methoxypyrimidin-4-yl)-3-(trifluoromethyl)pyrazol-4-yl]-1-methyl-imidazole-2-carboxamide]: 0.89 µM.
On the same count and under the same terms, as for `Cc1c[nH]nc1-n1cc(-c2cnc(C(=O)Nc3ccc(C(=O)N4CCN(C(=O)C5CCN(C)CC5)CC4)c(Cl)c3)n2C)c(C(F)(F)F)n1` [Example C15, N-[3-chloro-4-[4-(1-methylpiperidine-4-carbonyl)piperazine-1-carbonyl]phenyl]-1-methyl-5-[1-(4-methyl-1H-pyrazol-3-yl)-3-(trifluoromethyl)pyrazol-4-yl]imidazole-2-carboxamide], the figure is 0.91 µM; as for `COCc1c[nH]nc1-n1cc(-c2cnc(C(=O)Nc3ccc(C(=O)N4CCN(C(=O)C5CCN(C)CC5)CC4)c(Cl)c3)n2C)c(C(F)(F)F)n1` [Example Z9, N-[3-chloro-4-[4-(1-methylpiperidine-4-carbonyl)piperazine-1-carbonyl]phenyl]-5-[1-[4-(methoxymethyl)-1H-pyrazol-3-yl]-3-(trifluoromethyl)pyrazol-4-yl]-1-methyl-imidazole-2-carboxamide], 1.08 µM; as for `Cn1c(-c2cn(-c3cnc(N)c(F)c3)nc2C(F)(F)F)cnc1C(=O)Nc1ccc(C(=O)N2CCN(C(=O)C3CCNCC3)CC2)c(Cl)c1` [Example Z74, 5-[1-(6-amino-5-fluoro-3-pyridyl)-3-(trifluoromethyl)pyrazol-4-yl]-N-[3-chloro-4-[4-(piperidine-4-carbonyl)piperazine-1-carbonyl]phenyl]-1-methyl-imidazole-2-carboxamide], 0.75 µM.
On the same count and under the same terms, next, `Cn1c(-c2cn(-c3ccc(N)cn3)nc2C(F)(F)F)cnc1C(=O)Nc1ccc(C(=O)NC2(CO)CCNC2)c(Cl)c1` (stereo not shown) [Example Z5, 5-[1-(5-amino-2-pyridyl)-3-(trifluoromethyl)pyrazol-4-yl]-N-[3-chloro-4-[(3-methylolpyrrolidin-3-yl)carbamoyl]phenyl]-1-methyl-imidazole-2-carboxamide]: 1.8 µM.
For the molecule `Cn1c(-c2cn(-c3cc(F)ncc3N)nc2C(F)(F)F)cnc1C(=O)Nc1ccc(C(=O)N2CCN(C(=O)C3CCNCC3)CC2)c(Cl)c1` [Example Z83, 5-[1-(5-amino-2-fluoro-4-pyridyl)-3-(trifluoromethyl)pyrazol-4-yl]-N-[3-chloro-4-[4-(piperidine-4-carbonyl)piperazine-1-carbonyl]phenyl]-1-methyl-imidazole-2-carboxamide], the IC90 is 1.22 µM.
The same measure, in the same setting: next, `CCN(CC)C(=O)c1ccc(NC(=O)c2ncc(-c3cn(-c4ccc(N)cn4)nc3C(F)(F)F)n2C)cc1Cl` [Example Z76, 5-[1-(5-amino-2-pyridyl)-3-(trifluoromethyl)pyrazol-4-yl]-N-[3-chloro-4-(diethylcarbamoyl)phenyl]-1-methyl-imidazole-2-carboxamide]: 1.14 µM; `Cn1c(-c2cn(-c3ccc(N)nc3F)nc2C(F)(F)F)cnc1C(=O)Nc1ccc(C(=O)N2CCN(C(=O)C3CCNCC3)CC2)c(Cl)c1` [Example Z84, 5-[1-(6-amino-2-fluoro-3-pyridyl)-3-(trifluoromethyl)pyrazol-4-yl]-N-[3-chloro-4-[4-(piperidine-4-carbonyl)piperazine-1-carbonyl]phenyl]-1-methyl-imidazole-2-carboxamide]: 0.23 µM; `Cn1c(-c2cn(-c3ccc(N)cn3)nc2C(F)(F)F)cnc1C(=O)Nc1ccc(C(=O)NCC2CC2N)c(Cl)c1` (stereo not shown) [Example Z18, N-[4-[(2-aminocyclopropyl)methylcarbamoyl]-3-chloro-phenyl]-5-[1-(5-amino-2-pyridyl)-3-(trifluoromethyl)pyrazol-4-yl]-1-methyl-imidazole-2-carboxamide]: 1.59 µM.
In the case of `Cn1c(-c2cn(-c3ccc(N)cn3)nc2C(F)(F)F)cnc1C(=O)Nc1ccc(C(=O)N2C3CNCC2C3)c(Cl)c1` [Example Z55, 5-[1-(5-amino-2-pyridyl)-3-(trifluoromethyl)pyrazol-4-yl]-N-[3-chloro-4-(3,6-diazabicyclo[3.1.1]heptane-6-carbonyl)phenyl]-1-methyl-imidazole-2-carboxamide], the IC90 worked out at 0.34 µM.
The same measure, in the same setting: as for `Cn1c(-c2cn(-c3cnc(N)cn3)nc2C(F)(F)F)cnc1C(=O)Nc1ccc(C(=O)N2CCN(C(=O)C3CCNCC3)CC2)c(Cl)c1` [Example Z29, 5-[1-(5-aminopyrazin-2-yl)-3-(trifluoromethyl)pyrazol-4-yl]-N-[3-chloro-4-(4-isonipecotoylpiperazine-1-carbonyl)phenyl]-1-methyl-imidazole-2-carboxamide], the figure is 0.6 µM.

The test is the same for the next values; noted with them: Acinetobacter baumannii, ATCC17961, 16 h, read-out: ATCC 17961 IC90.
As to `Cn1c(-c2cn(-c3ccc(N)cn3)nc2C(F)(F)F)cnc1C(=O)Nc1ccc(C(=O)N2CCC(C(=O)N3CCNCC3)CC2)c(Cl)c1` [Example H1, 5-[1-(5-Amino-2-pyridyl)-3-(trifluoromethyl)pyrazol-4-yl]-N-[3-chloro-4-[4-(piperazine-1-carbonyl)piperidine-1-carbonyl]phenyl]-1-methyl-imidazole-2-carboxamide], the IC90 was 0.48 µM.
